Assay [1] concerns the target T1, human sodium channels Nav 1.8 (Homo sapiens, UniProt Q9Y5Y9).
T1 construct: expressed in transfected cells
The assay can be described thus: Automated whole-cell voltage-clamp (ScreenPatch 384P) sodium current block, Nav 1.8. As to conditions: CHO cells stably expressing human Nav 1.8; inactivation step -40 mV 8 s, test step 10 mV (TP1A); eight concentrations; exposure at least five minutes; room temperature; read-out: Nav1.8 IC50. The assay is classed as cell-based. The essentials:
(§1)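 Stable CHO lines, whole-cell automated patch clamp at room temperature, ≥5 min exposure, eight concentrations. From -100 mV hold, 8 s at -40 mV, 20 ms at -100 mV, then test pulse to 10 mV (Nav 1.8) or 0 mV (Nav 1.7) at 0.05 Hz; peak-current % block fitted for IC50, averaged over repeats.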

For assay [2], the target named is T2, human sodium channels Nav 1.7 (Homo sapiens, UniProt Q15858).
T2 construct: expressed in transfected cells
T2 sequence (Q15858 whole entry): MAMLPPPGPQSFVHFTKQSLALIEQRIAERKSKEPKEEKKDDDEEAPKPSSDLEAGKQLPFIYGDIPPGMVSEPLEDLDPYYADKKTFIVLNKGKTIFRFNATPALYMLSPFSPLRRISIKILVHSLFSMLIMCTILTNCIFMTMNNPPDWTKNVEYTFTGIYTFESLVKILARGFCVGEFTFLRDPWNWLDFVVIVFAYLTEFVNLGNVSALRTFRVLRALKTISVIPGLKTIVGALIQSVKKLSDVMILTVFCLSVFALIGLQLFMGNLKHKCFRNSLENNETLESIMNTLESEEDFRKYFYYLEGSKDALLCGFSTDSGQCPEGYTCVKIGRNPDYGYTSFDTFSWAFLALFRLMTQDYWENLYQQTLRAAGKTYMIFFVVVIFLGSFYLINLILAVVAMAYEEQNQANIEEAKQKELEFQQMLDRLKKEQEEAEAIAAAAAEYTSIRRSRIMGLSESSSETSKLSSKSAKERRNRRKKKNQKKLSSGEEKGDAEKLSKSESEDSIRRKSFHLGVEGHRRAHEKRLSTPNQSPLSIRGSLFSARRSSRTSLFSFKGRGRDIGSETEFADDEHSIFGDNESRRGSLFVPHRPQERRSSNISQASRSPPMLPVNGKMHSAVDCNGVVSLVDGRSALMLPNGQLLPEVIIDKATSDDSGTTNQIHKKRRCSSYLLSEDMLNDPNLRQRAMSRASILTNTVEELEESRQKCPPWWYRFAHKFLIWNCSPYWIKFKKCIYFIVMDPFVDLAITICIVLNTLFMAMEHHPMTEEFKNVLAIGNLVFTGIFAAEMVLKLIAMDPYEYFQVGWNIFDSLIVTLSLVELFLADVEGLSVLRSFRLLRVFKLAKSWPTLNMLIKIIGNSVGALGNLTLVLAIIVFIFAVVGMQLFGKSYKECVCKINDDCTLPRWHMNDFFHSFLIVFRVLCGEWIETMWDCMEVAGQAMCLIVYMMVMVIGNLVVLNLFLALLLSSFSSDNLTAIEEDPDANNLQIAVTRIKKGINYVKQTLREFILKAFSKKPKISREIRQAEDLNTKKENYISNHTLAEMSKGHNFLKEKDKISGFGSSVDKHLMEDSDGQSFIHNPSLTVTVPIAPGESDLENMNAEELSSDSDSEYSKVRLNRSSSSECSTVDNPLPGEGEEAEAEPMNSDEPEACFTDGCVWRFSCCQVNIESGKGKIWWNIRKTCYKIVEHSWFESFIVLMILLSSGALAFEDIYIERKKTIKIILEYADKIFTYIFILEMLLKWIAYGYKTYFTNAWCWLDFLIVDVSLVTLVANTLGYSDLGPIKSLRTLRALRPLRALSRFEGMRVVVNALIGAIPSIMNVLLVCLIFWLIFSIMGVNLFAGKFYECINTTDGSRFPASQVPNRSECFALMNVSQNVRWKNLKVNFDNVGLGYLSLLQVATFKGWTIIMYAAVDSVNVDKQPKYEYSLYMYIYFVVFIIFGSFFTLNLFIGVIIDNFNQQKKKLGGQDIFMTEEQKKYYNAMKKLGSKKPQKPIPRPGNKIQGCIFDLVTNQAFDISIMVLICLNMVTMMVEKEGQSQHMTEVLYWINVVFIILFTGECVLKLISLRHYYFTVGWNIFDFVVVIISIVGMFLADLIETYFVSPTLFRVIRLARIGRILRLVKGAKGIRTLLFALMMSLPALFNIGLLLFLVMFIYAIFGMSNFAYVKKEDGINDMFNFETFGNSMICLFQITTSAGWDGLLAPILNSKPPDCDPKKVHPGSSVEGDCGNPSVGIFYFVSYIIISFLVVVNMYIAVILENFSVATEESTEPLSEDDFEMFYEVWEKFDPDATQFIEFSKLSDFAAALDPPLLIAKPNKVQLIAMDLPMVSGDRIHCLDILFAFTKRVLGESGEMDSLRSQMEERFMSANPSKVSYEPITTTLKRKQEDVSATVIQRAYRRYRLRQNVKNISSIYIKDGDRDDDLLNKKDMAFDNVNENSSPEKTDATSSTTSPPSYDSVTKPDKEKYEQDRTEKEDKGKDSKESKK
The assay can be described thus: Automated whole-cell voltage-clamp (ScreenPatch 384P) sodium current block, Nav 1.7. It is filed as cell-based. As to conditions: CHO cells stably expressing human Nav 1.7; inactivation step -40 mV 8 s, test step 0 mV (TP1A); eight concentrations; exposure at least five minutes; room temperature; read-out: Nav1.7 IC50. Summed up:
as §1

This note sets out measurements from patent EP4660182A1, “NAV1.7- AND/OR NAV1.8-INHIBITING ARYL PYRIDINE COMPOUNDS, PROCESSES FOR THE PREPARATION THEREOF, COMPOSITIONS, USES, METHODS FOR TREATMENT USING SAME, AND KITS” (Eurofarma Laboratórios S.A., priority 2023, dated 2024).

The term IC50 denotes the concentration at which inhibition is half-maximal.

T1 sequence (Q9Y5Y9 whole entry): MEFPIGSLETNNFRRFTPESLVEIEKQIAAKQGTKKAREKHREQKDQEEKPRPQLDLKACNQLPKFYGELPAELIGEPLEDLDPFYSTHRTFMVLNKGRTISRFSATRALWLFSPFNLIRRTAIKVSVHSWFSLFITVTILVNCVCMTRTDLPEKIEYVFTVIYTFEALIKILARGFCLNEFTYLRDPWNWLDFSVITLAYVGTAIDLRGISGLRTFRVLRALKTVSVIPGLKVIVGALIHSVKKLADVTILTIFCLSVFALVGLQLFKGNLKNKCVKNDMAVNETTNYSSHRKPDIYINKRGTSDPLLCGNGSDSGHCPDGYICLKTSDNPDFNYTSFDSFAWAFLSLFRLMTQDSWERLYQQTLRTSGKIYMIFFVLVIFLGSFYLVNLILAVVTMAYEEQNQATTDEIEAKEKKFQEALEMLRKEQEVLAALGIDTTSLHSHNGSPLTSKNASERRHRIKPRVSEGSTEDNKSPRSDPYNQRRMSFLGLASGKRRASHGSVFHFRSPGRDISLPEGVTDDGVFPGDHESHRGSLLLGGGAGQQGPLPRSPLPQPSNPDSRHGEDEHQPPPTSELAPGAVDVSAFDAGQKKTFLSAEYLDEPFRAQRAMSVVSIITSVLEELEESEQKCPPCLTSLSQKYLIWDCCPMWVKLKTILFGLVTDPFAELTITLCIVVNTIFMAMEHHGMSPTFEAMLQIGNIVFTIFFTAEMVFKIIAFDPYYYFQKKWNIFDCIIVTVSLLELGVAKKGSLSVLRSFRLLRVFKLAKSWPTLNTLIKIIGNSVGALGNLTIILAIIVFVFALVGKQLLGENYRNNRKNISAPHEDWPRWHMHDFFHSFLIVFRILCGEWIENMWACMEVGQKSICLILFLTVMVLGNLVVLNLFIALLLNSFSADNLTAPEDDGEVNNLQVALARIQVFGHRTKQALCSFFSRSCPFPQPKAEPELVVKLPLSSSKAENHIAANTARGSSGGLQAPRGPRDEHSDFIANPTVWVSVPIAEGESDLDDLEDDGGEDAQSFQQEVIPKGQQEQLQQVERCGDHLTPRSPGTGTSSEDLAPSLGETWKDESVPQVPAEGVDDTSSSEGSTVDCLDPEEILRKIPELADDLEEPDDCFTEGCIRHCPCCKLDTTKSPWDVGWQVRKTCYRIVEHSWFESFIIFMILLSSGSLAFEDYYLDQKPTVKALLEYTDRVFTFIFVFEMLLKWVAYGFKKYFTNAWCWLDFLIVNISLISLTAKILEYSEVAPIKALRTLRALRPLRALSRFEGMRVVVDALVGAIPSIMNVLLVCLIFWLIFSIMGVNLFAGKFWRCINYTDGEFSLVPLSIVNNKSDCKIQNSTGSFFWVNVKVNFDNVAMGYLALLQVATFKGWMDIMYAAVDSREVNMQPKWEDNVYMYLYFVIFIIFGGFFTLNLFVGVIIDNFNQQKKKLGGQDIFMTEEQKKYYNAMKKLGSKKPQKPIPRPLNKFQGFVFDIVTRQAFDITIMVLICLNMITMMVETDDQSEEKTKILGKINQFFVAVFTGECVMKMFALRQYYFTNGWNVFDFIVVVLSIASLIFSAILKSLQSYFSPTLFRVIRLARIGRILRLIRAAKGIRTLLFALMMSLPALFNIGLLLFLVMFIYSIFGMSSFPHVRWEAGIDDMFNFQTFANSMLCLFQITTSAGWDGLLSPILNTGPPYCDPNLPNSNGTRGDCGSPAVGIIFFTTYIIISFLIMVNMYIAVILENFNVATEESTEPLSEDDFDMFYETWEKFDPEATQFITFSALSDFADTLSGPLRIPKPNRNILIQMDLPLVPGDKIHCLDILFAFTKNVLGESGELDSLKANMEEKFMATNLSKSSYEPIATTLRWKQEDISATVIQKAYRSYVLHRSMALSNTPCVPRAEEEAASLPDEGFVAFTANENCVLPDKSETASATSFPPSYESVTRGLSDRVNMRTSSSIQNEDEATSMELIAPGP

Regarding `COc1cc(/C=N/NC(=O)c2cncc(-c3ccc(OC(F)F)nc3)n2)cc(O)n1` [Compound 118, (E)-6-(6-(difluoromethoxy)pyridine-3-yl)-N'-((2-hydroxy-6-methoxypyridine-4-yl)methylene)pyrazine-2-carbohydrazide], the IC50 in assay [1] and in assay [2] was more than 1000 nM throughout.
Consider `COc1ccc(F)c(/C=N/NC(=O)c2cncc(-c3ccc(C#N)nc3)n2)c1` [Compound 130, (E)-6-(6-cyanopyridine-3-yl)-N'-(2-fluoro-5-methoxybenzylidene)pyrazine-2-carbohydrazide], for which the IC50 in assay [1] and in assay [2] was more than 1000 nM each time.
For the compound `CC[S+]([O-])c1ccc(-c2cncc(C(=O)N/N=C/c3cc(OC)ccc3F)n2)cn1` (centres unmarked) [Compound 132, (E)-6-(6-(ethylsulfinyl)pyridine-3-yl)-N'-(2-fluoro-5-methoxybenzylidene)pyrazine-2-carbohydrazide], the IC50 in assay [1] and in assay [2] was more than 1000 nM throughout.
Turning to `CCOc1ccc(-c2cncc(C(=O)N(C)/N=C/c3cc(OC)cnc3F)n2)cn1` [Compound 175, (E)-6-(6-ethoxypyridine-3-yl)-N'-((2-fluoro-5-methoxypyridine-3-yl)methylene)-N-methylpyrazine-2-carbohydrazide], the IC50 in assay [1] and in assay [2] was more than 1000 nM each time.
Turning to `CCOc1ccc(-c2nc(C(=O)N/N=C/c3cccn3C)cnc2O)cn1` [Compound 69, (E)-6-(6-ethoxypyridine-3-yl)-5-hydroxy-N'-((1-methyl-1H-pyrrole-2-yl)methylene)pyrazine-2-carbohydrazide], the IC50 in assay [1] and in assay [2] was more than 1000 nM throughout.
Consider `CCOc1ccc(-c2cncc(C(=O)N/N=C/c3occc3OC)n2)cn1` [Compound 55, (E)-6-(6-ethoxypyridine-3-yl)-N'-((3-methoxyfuran-2-yl)methylene)pyrazine-2-carbohydrazide], for which the IC50 in assay [1] and in assay [2] was more than 1000 nM throughout.
Turning to `CCOc1ncc(-c2cncc(C(=O)N/N=C/c3cc(OC)cnc3F)n2)cc1O` [Compound 157, (E)-6-(6-ethoxy-5-hydroxypyridine-3-yl)-N'-((2-fluoro-5-methoxypyridine-3-yl)methylene) pyrazine-2-carbohydrazide], the IC50 in assay [1] is 500 to 1000 nM; in assay [2], more than 1000 nM.
In the same order, the values of `COc1cnc(F)c(/C=N/NC(=O)c2cncc(-c3ccc(O)nc3)n2)c1` [Compound 167, (E)-N'-((2-fluoro-5-methoxypyridine-3-yl)methylene)-6-(6-hydroxypyridine-3-yl) pyrazine-2-carbohydrazide] are more than 1000 nM and more than 1000 nM.
For `COc1ccc(F)c(/C=N/NC(=O)c2cncc(-c3ccc([S+](C)[O-])nc3)n2)c1` (centres unmarked) [Compound 131, (E)-N'-(2-fluoro-5-methoxybenzylidene)-6-(6-(methylsulfinyl)pyridine-3-yl)pyrazine-2-carbohydrazide], the values for the concentration for half-maximal inhibition (IC50) in assay [1] and in assay [2] were 500 to 1000 nM and more than 1000 nM, respectively.
In the same order, the values of `CCOc1ccc(-c2cnc(O)c(C(=O)N/N=C/c3cc(OC)ccc3F)n2)cn1` [Compound 68, (E)-6-(6-ethoxypyridine-3-yl)-N'-(2-fluoro-5-methoxybenzylidene)-3-hydroxypyrazine-2-carbohydrazide] are more than 1000 nM and more than 1000 nM.
In the same order, the values of `CCOc1ccc(-c2cncc(C(=O)N/N=C/c3cncn3C)n2)cn1` [Compound 58, (E)-6-(6-ethoxypyridine-3-yl)-N'-((1-methyl-1H-imidazole-5-yl)methylene)pyrazine-2-carbohydrazide] are more than 1000 nM and more than 1000 nM.
As for `CCOc1ccc(-c2cncc(C(=O)N/N=C/c3cc(C(=O)O)ccc3F)n2)cn1` [Compound 10, (E)-3-(2-(6-(6-(6-ethoxypyridine-3-yl)pyrazine-2-carbonyl)hydrazinylidene)methyl)-4-fluorobenzoic acid], the 50% inhibitory concentration (IC50) in assay [1] and in assay [2] was more than 1000 nM in each case.
Turning to `CCOc1ccc(-c2cncc(C(=O)N/N=C/c3cc(OC)c(F)cc3F)n2)cn1` [Compound 3, (E)-N'-(2,4-difluoro-5-methoxybenzylidene)-6-(6-ethoxypyridine-3-yl)pyrazine-2-carbohydrazide], the IC50 in assay [1] was less than 500 nM; in assay [2], 500 to 1000 nM.
In the same order, the values of `CCOc1ccc(-c2cncc(C(=O)N/N=C/c3cc(OC)ncc3F)n2)cn1` [Compound 8, (E)-6-(6-ethoxypyridine-3-yl)-N'-((5-fluoro-2-methoxypyridine-4-yl)methylene)pyrazine-2-carbohydrazide] are 500 to 1000 nM and more than 1000 nM.
In the same order, the values of `COc1cnc(F)c(/C=N/NC(=O)c2cncc(-c3ccc(OCC4CNC4)nc3)n2)c1` [Compound 143, (E)-6-(6-(azetidin-3-ylmethoxy)pyridine-3-yl)-N'-((2-fluoro-5-methoxypyridine-3-yl)methylene)pyrazine-2-carbohydrazide] are more than 1000 nM and more than 1000 nM.
The like results for `COc1cnc(O)c(/C=N/NC(=O)c2cncc(-c3ccc(OC(F)F)nc3)n2)c1` [Compound 117, (E)-6-(6-(difluoromethoxy)pyridine-3-yl)-N'-((2-hydroxy-5-methoxypyridine-3-yl)methylene)pyrazine-2-carbohydrazide] were, in that order, more than 1000 nM and more than 1000 nM.
Take `COc1ccc(F)c(/C=N/NC(=O)c2cncc(-c3ccc(OCCC4CNC4)nc3)n2)c1` [Compound 141, (E)-6-(6-(2-(azetidin-3-yl)ethoxy)pyridine-3-yl)-N'-(2-fluoro-5-methoxybenzylidene)pyrazine-2-carbohydrazide]: the IC50 in assay [1] and in assay [2] was more than 1000 nM throughout.
Take `COc1cnc(F)c(/C=N/NC(=O)c2nccc(-c3ccc(OC(F)F)nc3)n2)c1` [Compound 127, (E)-4-(6-(difluoromethoxy)pyridine-3-yl)-N'-((2-fluoro-5-methoxypyridine-3-yl)methylene)pyrimidine-2-carbohydrazide]: the IC50 is 500 to 1000 nM in assay [1] and more than 1000 nM in assay [2].
In the same order, the values of `CCOc1ccc(-c2nc(C(=O)N/N=C/c3cc(OC)ccc3F)cnc2O)cn1` [Compound 66, (E)-6-(6-ethoxypyridine-3-yl)-N'-(2-fluoro-5-methoxybenzylidene)-5-hydroxypyrazine-2-carbohydrazide] are more than 1000 nM and more than 1000 nM.
The like results for `COc1ccc(F)c(/C=N/NC(=O)c2cncc(-c3ccc(OC(F)(F)F)nc3)n2)c1` [Compound 83, (E)-N'-(2-fluoro-5-methoxybenzylidene)-6-(6-(trifluoromethoxy)pyridine-3-yl)pyrazine-2-carbohydrazide] were, in that order, less than 500 nM and more than 1000 nM.
The like results for `CC(O)c1ccc(F)c(/C=N/NC(=O)c2cncc(-c3ccc(OC(F)F)nc3)n2)c1` (centres unmarked) [Compound 110, (E)-6-(6-(difluoromethoxy)pyridine-3-yl)-N'-(2-fluoro-5-(1-hydroxyethyl)benzylidene)pyrazine-2-carbohydrazide] were, in that order, less than 500 nM and more than 1000 nM.
For the compound `CCOc1ccc(-c2cncc(C(=O)N/N=C/c3cccn3C)n2)cn1` [Compound 50, (E)-6-(6-ethoxypyridine-3-yl)-N'-((1-methyl-1H-pyrrole-2-yl)methylene)pyrazine-2-carbohydrazide], the IC50 is less than 500 nM in assay [1] and more than 1000 nM in assay [2].
With `CCOc1ccc(-c2cncc(C(=O)N/N=C/c3ccnn3CC)n2)cn1` [Compound 52, (E)-6-(6-ethoxypyridine-3-yl)-N'-((1-ethyl-1H-pyrazole-5-yl)methylene)pyrazine-2-carbohydrazide], the IC50 was less than 500 nM in assay [1] and more than 1000 nM in assay [2].
`CCOc1ccc(-c2nc(C(=O)N/N=C/c3cc(OC)cnc3F)cn(C)c2=O)cn1` [Compound 75, (E)-6-(6-ethoxypyridine-3-yl)-N'-((2-fluoro-5-methoxypyridine-3-yl)methylene)-4-methyl-5-oxo-4,5-dihydropyrazine-2-carbohydrazide]: the IC50 in assay [1] and in assay [2] was more than 1000 nM throughout.
On to `COc1cnc(F)c(/C=N/NC(=O)c2cncc(-c3cnc(OC(F)F)cc3C)n2)c1` [Compound 160, (E)-6-(6-(difluoromethoxy)-4-methylpyridine-3-yl)-N'-((2-fluoro-5-methoxypyridine-3-yl)methylene)pyrazine-2-carbohydrazide], for which the IC50 in assay [1] and in assay [2] was less than 500 nM throughout.
`COc1cc(/C=N/NC(=O)c2cncc(-c3ccc(OC(F)(F)F)nc3)n2)c(F)cn1` [Compound 96, (E)-N'-((5-fluoro-2-methoxypyridine-4-yl)methylene)-6-(6-(trifluoromethoxy)pyridine-3-yl)pyrazine-2-carbohydrazide]: the IC50 in assay [1] was less than 500 nM; in assay [2], more than 1000 nM.
In the same order, the values of `COc1cnc(C)c(/C=N/NC(=O)c2cncc(-c3ccc(OC(F)F)nc3)n2)c1` [Compound 103, (E)-6-(6-(difluoromethoxy)pyridine-3-yl)-N'-((5-methoxy-2-methylpyridine-3-yl)methylene)pyrazine-2-carbohydrazide] are less than 500 nM and more than 1000 nM.
In the same order, the values of `COc1ccc(O)c(/C=N/NC(=O)c2cncc(-c3ccc(OC(F)F)nc3)n2)c1` [Compound 120, (E)-6-(6-(difluoromethoxy)pyridine-3-yl)-N'-(2-hydroxy-5-methoxybenzylidene)pyrazine-2-carbohydrazide] are more than 1000 nM and more than 1000 nM.
